Activity calls are given as the source filed them. The calls are words filed in the database; no cut-off is given here.

Broadly, the inhibition is the relative decrease from the control value, in per cent. Broadly, the IC50 is the concentration that gives 50% inhibition.

A short description of data set [1]: Oxidation potential of compound at pH 7.3 by differential pulse voltammetry analysis. It is filed as physicochemical.
In data set [2] the test system is SH-SY5Y. As to the kind of experiment: Cytotoxicity against retinoic acid and TPA-differentiated human SH-SY5Y cells assessed as reduction in metabolic activity by measuring resazurin reduction at 10 uM incubated for 24 hrs by resazurin dye based assay relative to control. It is filed as toxicity, cell-based. Also noted: scale not given: the % may be the effect or the level left. (The colour change of resazurin is a common sign of viable cells or microbes.)

A short description of data set [3]: Retention time of compound at pH 2.6 by LC/UV analysis. It is filed as physicochemical. Conditions: buffer.
The target of data set [4] is T1, Catechol O-methyltransferase (Rattus norvegicus) (UniProt P22734).
T1 sequence (whole entry): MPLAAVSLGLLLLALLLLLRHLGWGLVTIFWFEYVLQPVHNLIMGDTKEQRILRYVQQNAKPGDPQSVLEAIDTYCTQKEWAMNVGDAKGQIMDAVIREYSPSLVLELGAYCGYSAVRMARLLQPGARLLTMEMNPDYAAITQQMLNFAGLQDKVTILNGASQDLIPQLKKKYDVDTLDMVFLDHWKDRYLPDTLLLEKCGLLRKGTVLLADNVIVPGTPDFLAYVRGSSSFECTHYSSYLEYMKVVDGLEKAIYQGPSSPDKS
The experiment in a line: Inhibition of S-COMT in rat liver homogenates using adrenaline as substrate and SAM as cofactor at 30 uM preincubated for 20 mins followed by substrate addition and measured after 5 mins relative to control. It is filed as tissue-based. As to conditions: time 25.0 min.

Another data set deals with SK-N-SH. As to the kind of experiment: Cytotoxicity against human SK-N-SH cells assessed as reduction in calcein fluorescence at 30 to 50 uM by calcein-AM assay. It is filed as toxicity, cell-based. Conditions: dose 30-50 µM.
The target in data set [5] is T2, Catechol O-methyltransferase (Rattus norvegicus, UniProt P22734).
T2 sequence (P22734 whole entry): T1 sequence (whole entry)
As to the kind of experiment: Inhibition of MB-COMT in rat liver homogenates using adrenaline as substrate and SAM as cofactor preincubated for 20 mins followed by substrate addition and measured after 5 mins. It is filed as tissue-based.

For the next data set, the species on record is Rattus norvegicus. As to the kind of experiment: Selectivity index, ratio of IC50 for S-COMT in rat liver homogenates to IC50 for MB-COMT in rat brain homogenates. It is filed as tissue-based.
Data set [6] deals with SH-SY5Y. As to the kind of experiment: Cytotoxicity against retinoic acid and TPA-differentiated human SH-SY5Y cells assessed as reduction in lysosomal activity by measuring neutral red dye internalization at 10 to 50 uM incubated for 24 hrs by neutral red dye based assay. It is filed as toxicity, cell-based. Conditions: dose 10-50 µM.
A short description of data set [7]: Antioxidant activity assessed as ORAC-FL index. It is filed as functional.
Data set [8] concerns the target T3, Amine oxidase [flavin-containing] B (Homo sapiens, UniProt P27338).
T3 sequence (P27338 whole entry): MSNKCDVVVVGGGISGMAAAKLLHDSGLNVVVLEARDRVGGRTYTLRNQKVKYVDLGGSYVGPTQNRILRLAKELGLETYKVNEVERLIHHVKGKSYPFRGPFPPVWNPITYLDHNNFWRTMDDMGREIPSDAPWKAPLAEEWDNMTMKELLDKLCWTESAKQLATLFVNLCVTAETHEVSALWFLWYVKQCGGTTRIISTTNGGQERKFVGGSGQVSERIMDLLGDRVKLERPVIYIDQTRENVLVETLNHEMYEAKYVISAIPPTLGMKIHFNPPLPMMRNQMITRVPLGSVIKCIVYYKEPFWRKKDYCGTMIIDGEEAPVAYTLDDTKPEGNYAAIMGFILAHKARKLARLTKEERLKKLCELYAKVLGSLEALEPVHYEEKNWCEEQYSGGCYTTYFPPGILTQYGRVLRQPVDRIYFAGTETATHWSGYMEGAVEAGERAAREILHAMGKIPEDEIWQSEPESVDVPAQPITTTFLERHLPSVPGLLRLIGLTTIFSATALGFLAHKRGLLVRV
As to the kind of experiment: Inhibition of human MAO-B using kynuramine as substrate incubated for 30 mins by spectrophotometry analysis.

The target in data set [9] is T2, Catechol O-methyltransferase. The experiment in a line: Inhibition of MB-COMT in rat brain homogenates using adrenaline as substrate and SAM as cofactor preincubated for 20 mins followed by substrate addition and measured after 5 mins. It is filed as tissue-based.
Data set [10] relates to SH-SY5Y. The experiment in a line: Cytoprotective activity against t-BHP induced oxidative stress in retinoic acid and TPA-differentiated human SH-SY5Y cells assessed as increase in resorufin fluorescence at 10 uM pretreated for 30 mins followed by t-BHP stimulation and measured after 24 hrs by resazurin dye based analysis. As to conditions: time 24.5 hrs. It is filed as functional, cell-based.

In data set [11] the target is T4, Amine oxidase [flavin-containing] A (Homo sapiens, UniProt P21397).
T4 sequence (P21397 whole entry): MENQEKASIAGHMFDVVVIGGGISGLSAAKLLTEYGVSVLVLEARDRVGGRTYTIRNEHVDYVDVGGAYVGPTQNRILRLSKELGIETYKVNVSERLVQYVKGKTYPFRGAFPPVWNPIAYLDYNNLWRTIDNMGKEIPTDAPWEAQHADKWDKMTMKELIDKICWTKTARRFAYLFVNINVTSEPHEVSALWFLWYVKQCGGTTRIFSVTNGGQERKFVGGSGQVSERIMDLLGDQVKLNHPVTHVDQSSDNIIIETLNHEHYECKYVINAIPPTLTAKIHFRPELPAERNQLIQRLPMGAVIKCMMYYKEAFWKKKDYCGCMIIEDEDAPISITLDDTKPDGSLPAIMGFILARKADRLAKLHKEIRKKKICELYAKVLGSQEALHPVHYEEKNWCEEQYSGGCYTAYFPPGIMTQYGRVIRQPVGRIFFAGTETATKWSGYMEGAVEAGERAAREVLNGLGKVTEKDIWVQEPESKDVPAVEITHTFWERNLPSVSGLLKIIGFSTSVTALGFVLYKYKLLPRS
As to the kind of experiment: Inhibition of human MAO-A using kynuramine as substrate at 10 uM incubated for 30 mins by spectrophotometry analysis relative to control. Conditions: 0.5 h.

For a further data set, the species on record is Homo sapiens. The experiment in a line: Selectivity index, ratio of IC50 for human MAO-A to IC50 for human MAO-B.
Data set [12] can be described thus: Chromatographic hydrophobicity index of compound at pH 2.6 by HPLC analysis. It is filed as physicochemical.
Data set [13] has as its system SH-SY5Y. As to the kind of experiment: Cytotoxicity against retinoic acid and TPA-differentiated human SH-SY5Y cells upto 50 uM incubated for 24 hrs by resazurin dye based assay. It is filed as toxicity, cell-based.
Data set [14] concerns SH-SY5Y. As to the kind of experiment: Cytotoxicity against retinoic acid and TPA-differentiated human SH-SY5Y cells upto 50 uM incubated for 24 hrs by neutral red dye based assay. It is filed as toxicity, cell-based.

With `N#C/C(=C\C=C\c1ccc(O)c(O)c1)C(=O)N1CCCCC1`, the Ep in [1] was determined as 154 mV. For the same compound, the Activity in the data set with SH-SY5Y [2] is more than 85%; in the data set on SK-N-SH, “Non-Toxic”; with SH-SY5Y [6], “Non-Toxic”. In addition, the Retention_time in [3] is recorded as 10.5 min. The compound further gave an inhibition in [4] of less than 50%. Also, the IC50 in data set [5] was found to be 2690 nM; in data set [8] it was 4.27 µM; in data set [9], 1330 nM. Also, the Ratio IC50 is more than 23 in the data set listed under Rattus norvegicus and more than 2.3 in the data set filed under Homo sapiens. The Activity index in [7] came to 3.5. In the data set on SH-SY5Y [10], the result was Active. This compound yielded an inhibition at 10 µM in data set [11] of less than 50%. Moreover, the CHI in data set [12] is 56.03.

On to `Cc1ccc(C(=O)c2cc(O)c(O)c([N+](=O)[O-])c2)cc1` [TOLCAPONE], for which the Activity entry in the data set on SK-N-SH, in the data set on SH-SY5Y [13] and with SH-SY5Y [14] was “Non-Toxic” each time.

The values are drawn from ChEMBL document CHEMBL5352424, “Boosting caffeic acid performance as antioxidant and monoamine oxidase B/catechol-O-methyltransferase inhibitor” (Eur J Med Chem, 2022).
